# In PubChem BioAssay (NCI):
#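 Five compound concentrations were applied to cells in 96-well plates for 48 hours; endpoints were derived by simple linear interpolation of the resulting dose-response curve. The concentration for full growth arrest is given as TGI.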
# Legend:
# Assay in all cases: DTP human tumour cell line panel, 48 h
# [1] = test system: PC-3 prostate
# [2] = test system: MALME-3M melanoma
# [3] = test system: HOP-62 NSCLC
# [4] = test system: A549 NSCLC
# [5] = test system: SK-MEL-5 melanoma
# [6] = test system: NCI/ADR-RES ovarian
# [7] = test system: MDA-MB-231 breast
# [8] = test system: HCT-15 colon
# [9] = test system: NCI-H460 lung
# [10] = test system: SF-539 CNS
# [11] = test system: UACC-257 melanoma
# [12] = test system: SF-295 CNS
# [13] = test system: K-562 leukemia
# [14] = test system: A498 renal
# [15] = test system: DU-145 prostate
# [16] = test system: SN12C renal
# [17] = test system: UO-31 renal
# [18] = test system: NCI-H522 lung
# [19] = test system: NCI-H23 lung
# [20] = test system: UACC-62 melanoma
# [21] = test system: 786-0 renal
# [22] = test system: MOLT-4 leukemia
# [23] = test system: CAKI-1 renal
# [24] = test system: MDA-MB-435
# [25] = test system: LOX IMVI melanoma
# [26] = test system: HL-60(TB) leukemia
# [27] = test system: CCRF-CEM leukemia
# [28] = test system: OVCAR-3 ovarian
# [29] = test system: MCF7 breast
# [30] = test system: U251 CNS
# [31] = test system: SK-OV-3 ovarian
# [32] = test system: T-47D breast
# [33] = test system: SW-620 colon
# [34] = test system: ACHN renal
# [35] = test system: COLO 205 colon
# [36] = test system: SK-MEL-2 melanoma
# [37] = test system: OVCAR-4 ovarian
# [38] = test system: SF-268 CNS
# [39] = test system: M14 melanoma
# [40] = test system: HOP-92 NSCLC
# [41] = test system: OVCAR-5 ovarian
# [42] = test system: SNB-19 CNS
# [43] = test system: MDA-N
# [44] = test system: RPMI-8226 leukemia
# [45] = test system: SNB-75 CNS
# [46] = test system: OVCAR-8 ovarian
# [47] = test system: HT29 colon
# [48] = test system: HS 578T breast
# [49] = test system: BT-549 breast
# [50] = test system: HCT-116 colon
# [51] = test system: EKVX NSCLC
# [52] = test system: TK-10 renal
# [53] = test system: RXF 393 renal
# [54] = test system: SK-MEL-28 melanoma
# [55] = test system: IGROV1 ovarian
# [56] = test system: KM12 colon
# [57] = test system: HCC-2998 colon
# [58] = test system: SR leukemia
# [59] = test system: NCI-H226 lung
smiles,measurement,setting,value
Cc1ccc(Nc2n[nH]c(=S)s2)cc1C,TGI,[1],> 100 µM
same,TGI,[2],> 100 µM
same,TGI,[3],> 100 µM
same,TGI,[4],> 100 µM
same,TGI,[5],> 100 µM
same,TGI,[6],> 100 µM
same,TGI,[7],> 100 µM
same,TGI,[8],> 100 µM
same,TGI,[9],> 100 µM
same,TGI,[10],> 100 µM
same,TGI,[11],> 100 µM
same,TGI,[12],> 100 µM
same,TGI,[13],> 100 µM
same,TGI,[14],> 100 µM
same,TGI,[15],> 100 µM
same,TGI,[16],> 100 µM
same,TGI,[17],> 100 µM
same,TGI,[18],> 100 µM
same,TGI,[19],> 100 µM
same,TGI,[20],> 100 µM
same,TGI,[21],> 100 µM
same,TGI,[22],> 100 µM
same,TGI,[23],> 100 µM
same,TGI,[24],> 100 µM
same,TGI,[25],> 100 µM
same,TGI,[26],> 100 µM
same,TGI,[27],> 100 µM
same,TGI,[28],> 100 µM
same,TGI,[29],> 100 µM
same,TGI,[30],> 100 µM
same,TGI,[31],> 100 µM
same,TGI,[32],> 100 µM
same,TGI,[33],> 100 µM
same,TGI,[34],> 100 µM
same,TGI,[35],> 100 µM
same,TGI,[36],> 100 µM
same,TGI,[37],> 100 µM
same,TGI,[38],> 100 µM
same,TGI,[39],> 100 µM
same,TGI,[40],> 100 µM
same,TGI,[41],> 100 µM
same,TGI,[42],> 100 µM
same,TGI,[43],> 100 µM
same,TGI,[44],> 100 µM
same,TGI,[45],> 100 µM
same,TGI,[46],> 100 µM
same,TGI,[47],> 100 µM
same,TGI,[48],> 100 µM
same,TGI,[49],> 100 µM
same,TGI,[50],> 100 µM
same,TGI,[51],> 100 µM
same,TGI,[52],> 100 µM
same,TGI,[53],> 100 µM
same,TGI,[54],> 100 µM
same,TGI,[55],> 100 µM
same,TGI,[56],> 100 µM
same,TGI,[57],> 100 µM
Nc1ncnn2c(C3OC(CO)C(O)C3O)ccc12 (centres undefined),TGI,[1],0.762 µM
same,TGI,[2],0.285 µM
same,TGI,[3],1.48 µM
same,TGI,[4],3.14 µM
same,TGI,[5],0.527 µM
same,TGI,[6],2.27 µM
same,TGI,[7],1.11 µM
same,TGI,[8],0.771 µM
same,TGI,[9],0.918 µM
same,TGI,[10],0.403 µM
same,TGI,[11],0.417 µM
same,TGI,[58],0.837 µM
same,TGI,[12],3.01 µM
same,TGI,[13],0.569 µM
same,TGI,[14],0.539 µM
same,TGI,[15],0.74 µM
same,TGI,[16],2.7 µM
same,TGI,[17],0.494 µM
same,TGI,[18],1.97 µM
same,TGI,[19],0.474 µM
same,TGI,[20],0.358 µM
same,TGI,[21],0.807 µM
same,TGI,[22],0.455 µM
same,TGI,[23],0.486 µM
same,TGI,[24],0.376 µM
same,TGI,[25],0.0463 µM
same,TGI,[26],0.328 µM
same,TGI,[27],0.627 µM
same,TGI,[28],0.52 µM
same,TGI,[30],4.14 µM
same,TGI,[32],6.93 µM
same,TGI,[33],35.1 µM
same,TGI,[34],0.645 µM
same,TGI,[35],0.762 µM
same,TGI,[36],0.362 µM
same,TGI,[37],0.582 µM
same,TGI,[38],1.99 µM
same,TGI,[39],0.413 µM
same,TGI,[40],0.431 µM
same,TGI,[41],4.54 µM
same,TGI,[42],25.4 µM
same,TGI,[43],0.693 µM
same,TGI,[44],0.467 µM
same,TGI,[45],0.866 µM
same,TGI,[46],0.746 µM
same,TGI,[47],1.45 µM
same,TGI,[48],0.275 µM
same,TGI,[49],0.789 µM
same,TGI,[50],0.151 µM
same,TGI,[51],4.23 µM
same,TGI,[52],0.682 µM
same,TGI,[53],0.667 µM
same,TGI,[54],0.592 µM
same,TGI,[59],0.866 µM
same,TGI,[55],0.562 µM
same,TGI,[56],0.677 µM
same,TGI,[57],2.71 µM
